In ChEMBL document CHEMBL5614369, “Design, synthesis and biological evaluation of Nrf2 modulators for the treatment of glioblastoma multiforme” (Bioorg Med Chem, 2024):
Activity calls are given as the source filed them. The calls are words filed in the database; no cut-off is given here.

What was measured:
[1] = system: U-87 MG; assay: Anti-tumor activity against human U87 cells assessed as reduction in cell proliferation by measuring reduction in green fluorescence intensity at 50 to 100 uM incubated for 48 hrs by Calcein AM dye based fluorescence microscopy; assay type: functional; settings: U-87MG ATCC, dose 50-100 µM
[2] = system: U-87 MG; assay: Antitumor activity against human U87 cells assessed as reduction in cell viability incubated for 48 hrs by CCK-8 assay; assay type: functional, cell-based, U-87MG ATCC
[3] = system: U-87 MG; assay: Cytotoxicity against human U87 cells assessed as reduction in cell count at 12.5 to 200 uM incubated for 48 hrs by crystal violet staining based microscopic analysis; assay type: functional; settings: U-87MG ATCC, dose 12.5-200 µM
[4] = system: U-87 MG; assay: Antitumor activity against human U87 cells assessed as residual cell viability at 100 uM incubated for 48 hrs by CCK-8 assay relative to control; assay type: functional, U-87MG ATCC

Structure (SMILES)	Activity [1]	IC50 [2] [µM]	Activity ([2]; U-87MG ATCC)	Activity [3]	Activity [4] [%]
Oc1cc(O)cc(/C=C/c2ccccc2)c1 [PINOSYLVIN]	Active	89	Dose-Dependent Effect	Active	90
Cn1nnc2c(C(N)=O)ncn2c1=O [TEMOZOLOMIDE]	–	–	–	–	47
